Series [1] deals with Escherichia coli K-12 (MG1655). Put plainly: Antimicrobial (bactericidal) activity against E. coli, effect of serum or serum proteins. The class given is cell-based. The settings on record: FBS, PBS, 37 °C (Fig. 1d). As to the method:
The Gram-negative bacteria Escherichia coli K-12 (MG1655) was cultured and plated in/on Luria–Bertani broth/agar plate (Merck Millipore, Darmstadt, Germany). The Gram-positive Staphylococcus aureus (ATCC 6538P) was cultured and plated in tryptic soy broth/agar (BD, MD, USA). The fungus Candida albicans (ATCC 14,053) was cultured and plated in YM broth/agar (BD, MD, USA). The bacteria were grown overnight, washed, and diluted 1:2000 in phosphate buffered saline (PBS), pH 7.5 or DMEM (Life Biotech, California, USA), pH 7.4. Bacteria (ca. 1 × 10^6 colony-forming units, cfu) were mixed with antimicrobial peptides (AMP) in 100 μl PBS and incubated at 37 °C (for bacteria) and at 30 °C (for fungus). Serial dilutions of each AMP-treated bacteria in PBS/DMEM supplemented with FBS were prepared and plated for the determination of remaining viable cells (expressed as cfu). At least three independent experiments were performed for each assay to determine the average value with standard deviation. MBC was defined as the lowest AMP concentration that kills 99.9% of the original inoculum.

Series [2] deals with T1, protein D (albumin and α1-antitrypsin complex) (Bos taurus, UniProt P02769+P34955).
T1 construct: The active components were further purified by fast performance liquid chromatography (FPLC) Mono Q and S12 column chromatography from the 70% saturated fraction; from tissue; host or cells: fetal bovine serum (70% ammonium sulfate fraction, FPLC Mono Q and Superose 12)
Kind of series: Band shift of AMPs by protein D. The class given is binding, bovine.

The target of series [3] is T1, protein D (albumin and α1-antitrypsin complex). Kind of series: Inhibition of the binding of TP4-A12I,A15I to protein D (band shift competition). The arrangement: species or system bovine. On the procedure: Reagents were added to the protein A and protein D at the indicated concentrations and excited at […] and recorded for the emission spectrum between 300 to 450 nm.
(§1) Various AMPs (4 μg each) were incubated with fetal bovine serum (FBS) components at room temperature in 10 μl PC buffer for 30 min and subjected to horizontal native 8% PAGE, pH8.0 or pH8.8, and Coomassie Blue staining.

The target of series [4] is T2, protein A (albumin) (Bos taurus, UniProt P02769). Kind of series: Pulling down of protein A by immobilized biotinylated TP4-A12I,A15I. The note with it: biotinylated peptide on Streptavidin-conjugated beads; PC buffer, room temperature, 30 min. The class given is binding, bovine. Also on record: The homogeneities of collected protein A (albumin), protein B (α1-antitrypsin), protein C (serotransferrin) and protein D complex; from tissue; host or cells: fetal bovine serum (70% ammonium sulfate fraction, FPLC Mono Q). As to the method: (§2) Streptavidin-conjugated beads were incubated with 10 μg of biotinylated TP4-A12I,A15I peptides in 600 μl PC buffer for one hour on a rolling wheel. The immobilized biotinylated AMPs were further mixed with serum components in the indicated 600 μl buffer(s) at room temperature for 30 min on a rolling wheel, then washed twice with 600 μl respective buffer and subjected to SDS-PAGE and Coomassie Blue staining. Specific proteins were excised from SDS-PAGE gel and subjected to in-gel trypsin digestion and liquid chromatography-tandem mass spectrometry.

For another series, the system named is crude bovine serum. Kind of series: Pulling down of proteins from crude bovine serum by biotinylated TP4-A12I,A15I. Format: binding. As to the method:
as §2

Series [5] deals with T3, protein B (α1-antitrypsin) (Bos taurus, UniProt P34955).
T3 sequence (P34955 25-416): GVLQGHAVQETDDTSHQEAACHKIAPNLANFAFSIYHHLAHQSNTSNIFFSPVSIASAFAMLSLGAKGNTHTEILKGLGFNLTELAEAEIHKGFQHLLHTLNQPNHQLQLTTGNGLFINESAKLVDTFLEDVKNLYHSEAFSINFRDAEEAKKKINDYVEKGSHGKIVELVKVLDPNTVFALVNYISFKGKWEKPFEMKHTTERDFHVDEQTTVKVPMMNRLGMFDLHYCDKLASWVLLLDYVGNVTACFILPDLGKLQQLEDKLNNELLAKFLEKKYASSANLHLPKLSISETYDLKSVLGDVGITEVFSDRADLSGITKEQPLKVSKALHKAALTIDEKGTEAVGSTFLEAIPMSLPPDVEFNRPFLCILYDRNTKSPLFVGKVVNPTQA
The settings on record: biolayer interferometry, Octet RED384; immobilized biotinylated TP4-A12I,A15I. In general terms: Biolayer interferometry detects binding as a change in optical thickness at a sensor tip.
Protocol: (§4) The biolayer interferometry were measured by an Octet RED384 instrument (ForteBio). […] Serial dilutions of serum components in 200 μl PC buffer were used as analyte. Affinity (Kd) and kinetic parameters (kon and koff) were calculated from a global fit (1:1) of the data using the Octet RED384 software[27].

Series [6] deals with T2, protein A (albumin). The note with it: biolayer interferometry, Octet RED384; immobilized biotinylated TP4-A12I,A15I.
Protocol: as §4
The next series relates to fetal bovine serum (FBS). Kind of series: Band shift of AMPs by fetal bovine serum. Format: binding. As to the method:
as §1

Series [7] has as its target T1, protein D (albumin and α1-antitrypsin complex). Kind of series: Biolayer interferometry, protein D. The class given is binding, bovine. The settings on record: biotinylated TP4-A12I,A15I.
Protocol: as §4
For another series, the system named is protein A/D mixture. Kind of series: FPLC S12 gel filtration of proteins A/D mixture with TP4-A12I,A15I. The settings on record: reduced SDS-PAGE of eluates. Format: binding, bovine. From the text: To further investigate the differential binding of AMP to protein A and protein D, the TP4-A12I,A15I and protein A/D was mixed and subjected to gel filtration chromatography (FPLC S12). There was a front shoulder on the elution profile (Fig. 3g).

The target in series [8] is T2, protein A (albumin). Put plainly: Fluorescence emission spectrum (blue shift), protein A. Format: binding, bovine. Also on record: The homogeneities of collected protein A (albumin), protein B (α1-antitrypsin), protein C (serotransferrin) and protein D complex; from tissue; host or cells: fetal bovine serum (70% ammonium sulfate fraction, FPLC Mono Q). The settings on record: protein A 0.75 μM, PC buffer, 25 °C, 30 min; excitation 285 nm, emission 300–450 nm; reagent up to: sarkosyl 320, TP4-A12I,A15I 120, ibuprofen 24, phenytoin 20 μM. On the procedure:
(§3) The mixtures were excited by 285 nm and its emission spectra were recorded between 300 and 450 nm using a temperature-controlled fluorimeter (FP8500, Jasco, Japan)[13].

Series [9] has as its target T1, protein D (albumin and α1-antitrypsin complex). Kind of series: Cross-linking of AMP-protein D complex and Western blotting. The settings on record: AMP/protein D cross-linked with glutaraldehyde, PC buffer, 37 °C, 30 min; reduced SDS-PAGE, Western blotting. Format: binding, bovine. As to the method:
Small aliquots of serum components (4 μg) in the presence/absence of AMPs (2 μg) were incubated with various concentrations of glutaraldehyde in 10 μl PC buffer at 37 °C for 30 min. […]
Background: Immunoblotting shows a protein as a band on a membrane.

The target is the same in series [10]. Kind of series: Pulling down of protein D by immobilized biotinylated TP4-A12I,A15I. Format: binding, bovine. As to the method:
as §2

Series [11] shares this target. Put plainly: Fluorescence emission spectrum (blue shift), protein D. The note with it: protein D 0.75 μM, PC buffer, 25 °C, 30 min; excitation 285 nm, emission 300–450 nm; reagent up to: sarkosyl 320, TP4-A12I,A15I 120, ibuprofen 24, phenytoin 20 μM. Format: binding, bovine. As to the method:
as §3

For the next series, the system named is serum protein. The note with it: cited from earlier work. On the procedure: Albumin is the most abundant protein in human serum (HSA, 45 mg/ml), followed in descending order by α1-antitrypsin (A1AT, 3.5 mg/ml), transferrin (2.5 mg/ml), α2-macroglobulin (2.5 mg/ml), haptoglobulin (1.8 mg/ml), low-density lipoprotein (LDL, 1.2 mg/ml), α1-acid glycoprotein (AGP, 0.8 mg/ml) and high-density lipoprotein (HDL, 0.6 mg/ml)[11]. These proteins are involved in the transportation of fatty acids, cholesterols, toxins and drugs in the blood stream.

Here are results for 2 compounds from paper PMC7809101, “Fetal bovine serum albumin inhibits antimicrobial peptide activity and binds drug only in complex with α1-antitrypsin” (Scientific Reports, 2021).

T1 sequence (P02769 25-607, one chain of several): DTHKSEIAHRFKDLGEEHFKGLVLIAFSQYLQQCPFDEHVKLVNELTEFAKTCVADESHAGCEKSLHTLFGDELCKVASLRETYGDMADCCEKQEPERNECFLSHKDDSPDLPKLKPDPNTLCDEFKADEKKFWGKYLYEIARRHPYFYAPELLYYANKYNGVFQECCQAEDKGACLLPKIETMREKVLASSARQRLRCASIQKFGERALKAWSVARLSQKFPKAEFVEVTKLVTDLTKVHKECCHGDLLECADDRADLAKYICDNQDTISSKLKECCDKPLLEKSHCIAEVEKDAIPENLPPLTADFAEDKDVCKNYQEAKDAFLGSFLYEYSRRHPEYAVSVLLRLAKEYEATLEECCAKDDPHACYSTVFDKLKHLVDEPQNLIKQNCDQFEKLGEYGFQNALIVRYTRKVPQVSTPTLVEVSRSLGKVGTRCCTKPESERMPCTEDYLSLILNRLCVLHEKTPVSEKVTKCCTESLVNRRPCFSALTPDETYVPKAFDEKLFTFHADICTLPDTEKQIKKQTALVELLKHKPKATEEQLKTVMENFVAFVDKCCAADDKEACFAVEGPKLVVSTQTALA
T2 sequence (P02769 25-607): as the sequence (P02769 25-607, one chain of several) above

With `CC[C@H](C)[C@H](NC(=O)[C@H](CO)NC(=O)[C@H](Cc1ccccc1)NC(=O)[C@H](CC(C)C)NC(=O)CNC(=O)CNC(=O)[C@@H](NC(=O)[C@@H](NC(=O)[C@H](Cc1c[nH]cn1)NC(=O)[C@H](Cc1c[nH]cn1)NC(=O)[C@@H](NC(=O)[C@@H](N)Cc1ccccc1)[C@@H](C)CC)[C@@H](C)CC)[C@@H](C)CC)C(=O)NCC(=O)N[C@@H](CCCCN)C(=O)N[C@H](C(=O)N[C@H](C(=O)N[C@@H](Cc1c[nH]cn1)C(=O)N[C@@H](CCCNC(=N)N)C(=O)N[C@@H](CC(C)C)C(=O)N[C@H](C(=O)N[C@@H](CCCNC(=N)N)C(=O)N[C@@H](CCCNC(=N)N)C(=O)N[C@@H](CCCNC(=N)N)C(=O)N[C@@H](CCCNC(=N)N)C(=O)N[C@@H](CCCNC(=N)N)C(=O)O)[C@@H](C)CC)[C@@H](C)CC)[C@@H](C)CC` [TP4-A12I,A15I], the “susceptibility of bactericidal activity to serum's inhibition (E. coli), relative to TP4” value in series [1] was “more susceptible to serum’s inhibition”. Further, the “change of binding ability to protein D by mutation of TP4” value in series [2] (band shift, Supplementary Fig. 3b, TP4 mutants 4 μg, 8% horizontal native PAGE) is recorded as “increased the binding ability”. The “binding to protein D (band shift, Fig. 7b)” value in series [2] (protein A and D mixture (20 μg each), TP4-A12I,A15I 4 μg, 37 °C, 30 min, native PAGE, pH8.8) is “only protein D, but not protein A, was bound”. The “AMP-binding ability of protein D reduced by β-ME (band shift)” value in series [2] (protein D reduced by β-ME, band shift (Fig. 4e)) was “destroyed”. In series [3] (inferred from competition and fluorescence), the “proposed binding site in protein D” value is given as “probably at the drug-binding site II of albumin in the protein D complex”. Besides, the “binding to protein A (pulling down)” value at protein A (albumin) [4] is listed as “not by protein A”. In the series on crude bovine serum (30%, 50%, 70% and 90% saturation, pulling down), the “location of TP4-A12I,A15I-binding components after ammonium sulfate fractionation (pulling down)” value is “mainly located at the 70% ammonia sulfate saturation fraction”. Also, the “proteins pulled down from crude serum (major band)” value in the series on crude bovine serum (biotinylated TP4-A12I,A15I on Streptavidin-conjugated beads, SDS-PAGE, LC/MS/MS, major band) was “major band consisted of albumin and α1-antitrypsin”. In addition, in the series with crude bovine serum (biotinylated TP4-A12I,A15I on Streptavidin-conjugated beads, SDS-PAGE, LC/MS/MS, minor band), the “proteins pulled down from crude serum (minor band)” value is “minor band was identified to be apolipoprotein AI (Apo-AI)”. The “Kd (protein B)” value in series [5] is reported as “not detectable”. Also, the “Kd (protein A)” value on protein A (albumin) [6] is recorded as “not detectable”. Further, the “location of TP4-A12I,A15I-binding components after ammonium sulfate fractionation (band shift)” value in the series on fetal bovine serum (FBS) (30%, 50%, 70% and 90% saturation, band shift) is reported as “mainly located at the 70% ammonia sulfate saturation fraction”. Besides, the “FBS-mediated band shift of TP4 mutants” value with fetal bovine serum (FBS) (AMP 4 μg with FBS, 10 μl PC buffer, room temperature, 30 min, horizontal native 8% PAGE, pH8.0) is given as “enhanced the shift”. Moreover, the “reversibility and potency of binding of protein D” value in [7] was “potent and reversible binding”. In addition, the “co-elution with albumin in gel filtration” value in the series with protein A/D mixture is recorded as “co-eluted with albumin only at the front shoulder fractions”. For the same compound, on protein A (albumin) [8], the “blue shift of fluorescence emission spectrum, protein A” value is listed as “did not cause blue shift”. For the same compound, the “association with proteins after cross-linking” value in [9] was “associated with protein A, protein B as well as monomeric and dimeric protein D”. The “binding of protein D in the presence of SDS (dimerization inhibited)” value in [10] (2 × SDS, equivalent to 0.125% SDS (w/v), pulling down, 15% non-reducing SDS-PAGE) is recorded as “unable to bind”. Also, the “protein retained on immobilized TP4-A12I,A15I after β-ME wash” value in [10] (pulled-down protein D dissociated by β-ME (1X = 0.25%), 8% reduced SDS-PAGE) is listed as “only protein B was still tightly associated”. Besides, the “binding of protein D constituents after dissociation by β-ME” value in series [10] (β-ME 0.1–0.4%, pulling down (Fig. 4f)) was “some protein D constituents were able to bind”. For the same compound, the “blue shift of fluorescence emission spectrum, protein D” value in series [11] is reported as “blue shift of fluorescence emission spectrum of protein D was observed”.
Turning to `O=C1NC(=O)C(c2ccccc2)(c2ccccc2)N1` [phenytoin], the “inhibition of binding of TP4-A12I,A15I to protein D” value in [3] (protein A and D mixture (20 μg each) pre-incubated with drug 30 min, then TP4-A12I,A15I (4 μg) at 37 °C, 30 min, native PAGE, pH8.8) is reported as “not”. In addition, in the series on serum protein, the “bound to serum protein” value is given as 90%. Moreover, on protein A (albumin) [8], the “blue shift of fluorescence emission spectrum, protein A” value was “no blue shift was seen”. Further, in series [11], the “blue shift of fluorescence emission spectrum, protein D” value was “no blue shift was seen”.
